Consider four compounds from US8663679B2, “Compositions for improving breast health in women” (Abbott Laboratories, priority 2004, dated 2014).

Assay [1] concerns MCF-10A cells, human fibrocystic mammary gland epithelial cells. Briefly: Cell proliferation assay (ViaLight Plus, ATP). It counts as cell-based. To be noted: MCF10A, 72 hours. As to the method:
Cells with no treatment are the controls. Plates are incubated at 37° C. for 72 hours.

For assay [2], the system named is HMEC, human mammary gland epithelial cells. To be noted: 72 hours. As for the experimental part:
(§1) MCF-7 human breast adenocarcinoma cells (ATCC) are maintained in Eagle's Minimal Essential Medium supplemented with 10% FBS (Gibco-BRL), 1% Penicillin-Streptomycin-Glutamine and 10 nM 17β Estradiol, (Sigma). MCF-10A cells, human fibrocystic mammary gland epithelial cells (ATCC) and HMEC, human mammary gland epithelial cells (Cambrex) are maintained in mammary epithelial complete growth medium (MEGM) containing the Bullet Kit (Cambrex Bio Sciences).
Cells are seeded on 24-well plates at 20-25×10^3 cells/well in 0.4-0.5 ml of their respective media. […] Cells with no treatment are the controls. Plates are incubated at 37° C. for 72 hours. Cell proliferation is measured using ViaLight Plus Cell Proliferation and Cytotoxicity BioAssay Kit by quantifying the amount of ATP released from the cells according to manufacture's protocol. […]
The luminometer and associated WinGlow software program are set up and primed with reconstituted AMR. […] The luminometer is programmed to take one second integrated reading of each appropriate well. The plates are incubated for 2 minutes at room temperature in the luminometer and one second integrated reading of each appropriate well is initiated.
Average RLU (relative luciferase unit) values for each set of triplicate wells, using Winglow software and Microsoft Excel, is calculated and graphed. […]

The subject of assay [3] is MCF-7 human breast adenocarcinoma cells. In words: Cell proliferation assay (ViaLight Plus, ATP). The settings on record: MCF7, 72 hours. It counts as cell-based. As for the experimental part: as §1
Cells are seeded on 24-well plates at 20-25×10^3 cells/well in 0.4-0.5 ml of their respective media. […] Cells with no treatment are the controls. Plates are incubated at 37° C. for 72 hours. Cell proliferation is measured using ViaLight Plus Cell Proliferation and Cytotoxicity BioAssay Kit by quantifying the amount of ATP released from the cells according to manufacture's protocol.
Cell culture plates are warmed up to room temperature for 5 minutes and 200 μl of cell lysis reagent is added to each well. After incubation at room temperature for 10 minutes with intermediate swirling of the plate, 100 μl of the sample from each well is loaded in triplicate in a white 96-well microtiter plate, Dynex Microlite 1+, for vialight assay. The ATP monitoring reagent (AMR) is reconstituted in assay buffer and allowed to equilibrate for 15 minutes at room temperature.
The luminometer and associated WinGlow software program are set up and primed with reconstituted AMR. The plate is placed in the luminometer and 100 μl of reconstituted AMR is dispensed per well. The luminometer is programmed to take one second integrated reading of each appropriate well. The plates are incubated for 2 minutes at room temperature in the luminometer and one second integrated reading of each appropriate well is initiated.
Average RLU (relative luciferase unit) values for each set of triplicate wells, using Winglow software and Microsoft Excel, is calculated and graphed. Effects of various treatments are calculated by plotting the percent of inhibition of cell proliferation versus the concentration of treatment. Percent inhibition of cell proliferation is calculated using the formula: […]

Assay [4] relates to MCF7 cells. To be noted: MCF7, GLA 0, 50, 100 μM, 48 hours.
Experimental: (§2) Cells are grown in T75 flasks up to 70-80% confluence before being treated with desired fatty acids conjugated with BSA for 48 hours at 37° C. at various concentrations (0, 50, 100 μM). After incubation, the cells are trypsinized from the flask and the cell suspensions are pooled and collected in 50 ml tubes. Each cell type and each treatment is done in duplicate. Cell suspensions are then centrifuged at 1000 rpm for 10 minutes each. Supernatants are discarded and the pellets suspended in phosphate buffered saline. The cells are washed twice with 10 ml of PBS (Phosphate buffer saline) at each step and centrifuged. The pellets are re-suspended in 10 ml of PBS and counted and the cell numbers are normalized for the experiment. The cell suspension is centrifuged again and the pellets stored at −80° C. until lipid extraction is performed.
(§3) Briefly, each cell pellet from a 50 ml culture is vortexed with 6 ml of methanol, followed by the addition of 12 ml of chloroform and 100 μg of tridecanoin (as internal standard). The mixture is incubated at 4° C. overnight. The chloroform layer is extracted and filtered through a Whatman filter with one gram of anhydrous sodium sulfate to remove particulates and residual water. Organic solvents are evaporated to dryness at 40° C. under a stream of nitrogen. […]
Assay [5] concerns MCF10A cells. To be noted: GLA 0, 50, 100 μM, 48 hours.
Experimental: as §2, §3
The test system of assay [6] is thyroid follicular cells. To be noted: well known; cited from earlier work.

Turning to `CCCCC/C=C\C/C=C\C/C=C\CCCCC(=O)O` [GLA, (Z,Z,Z)-6,9,12-octadecatrienoic acid], the “anti-proliferative activity on fibrocystic cells” value in assay [1] is “significant anti-proliferative activity”. In assay [2], the “anti-proliferative activity on normal breast cells” value is “no effect”. Moreover, the “anti-proliferative activity on breast cancer cells” value in assay [3] is recorded as “no effect”. The “production of arachidonic acid” value in assay [4] and in assay [5] was “increased production of arachidonic acid” in each case.
In the case of `[I-].[K+]` [Iodine, potassium iodide], the “anti-proliferative activity on fibrocystic cells” value in assay [1] is given as “does not show any anti-proliferative effect”. In assay [6], the “proliferation of thyroid follicular cells” value is “inhibits proliferation”. Also, the “anti-proliferative activity on breast cancer cells” value in assay [3] is “does not show any anti-proliferative effect”.
As to `O=[Se](=O)([O-])[O-].[Na+].[Na+]` [Selenium, sodium selenate], the “anti-proliferative activity on fibrocystic cells” value in assay [1] is on record as “anti-proliferative activity”. Besides, the “anti-proliferative activity on normal breast cells” value in assay [2] is listed as “no relative effect”. The “anti-proliferative activity on breast cancer cells” value in assay [3] is reported as “anti-proliferative activity”.
As to `CCCCC/C=C\C/C=C\C/C=C\CC(I)C1CCCC(=O)O1` (stereo not drawn) [iodo-arachidonate, 6-iodo-5-hydroxy-eicosatrienoic acid-delta-lactone], in assay [3], the “anti-proliferative activity on breast cancer cells” value is “significant inhibitory effect”.
